Experimental data: patent US7928060B2, “Amylin family polypeptide-6 (AFP-6) analogs and methods of making and using them” (Amylin Pharmaceuticals, Inc., priority 2004, dated 2011)
Read-outs that look alike come from different tables or passages of the source. Bridge positions count the residues as written; N and C are the ends. Ends that are not written are not given here. Peptide text beside a SMILES is read from it.

What was measured:
calcitonin receptor = molecular target: T1, calcitonin receptor (Rattus norvegicus, UniProt P32214); experiment: calcitonin receptor binding assay (rCalcitonin RBA); conditions: Table 6; read-out: CT receptor binding
T1 sequence (P32214 25-516): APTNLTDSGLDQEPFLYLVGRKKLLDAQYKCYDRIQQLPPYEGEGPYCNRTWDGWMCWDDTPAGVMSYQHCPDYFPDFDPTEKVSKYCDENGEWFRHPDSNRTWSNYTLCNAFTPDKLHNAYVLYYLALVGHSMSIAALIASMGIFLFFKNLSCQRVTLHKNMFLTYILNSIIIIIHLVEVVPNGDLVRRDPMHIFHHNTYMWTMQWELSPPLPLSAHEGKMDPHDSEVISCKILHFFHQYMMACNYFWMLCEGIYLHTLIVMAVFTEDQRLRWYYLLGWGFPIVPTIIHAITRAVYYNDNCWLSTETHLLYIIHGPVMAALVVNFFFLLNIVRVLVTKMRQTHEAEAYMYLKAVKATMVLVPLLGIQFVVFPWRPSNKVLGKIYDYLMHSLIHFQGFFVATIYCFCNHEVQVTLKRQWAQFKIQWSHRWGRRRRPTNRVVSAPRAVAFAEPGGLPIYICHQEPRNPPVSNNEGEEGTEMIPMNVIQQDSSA

adrenomedullin receptor = adrenomedullin receptor (Homo sapiens, UniProt O60895+Q16602); experiment: adrenomedullin (ADM) receptor binding assay; conditions: Table 6
Chain of adrenomedullin receptor (Q16602 23-461): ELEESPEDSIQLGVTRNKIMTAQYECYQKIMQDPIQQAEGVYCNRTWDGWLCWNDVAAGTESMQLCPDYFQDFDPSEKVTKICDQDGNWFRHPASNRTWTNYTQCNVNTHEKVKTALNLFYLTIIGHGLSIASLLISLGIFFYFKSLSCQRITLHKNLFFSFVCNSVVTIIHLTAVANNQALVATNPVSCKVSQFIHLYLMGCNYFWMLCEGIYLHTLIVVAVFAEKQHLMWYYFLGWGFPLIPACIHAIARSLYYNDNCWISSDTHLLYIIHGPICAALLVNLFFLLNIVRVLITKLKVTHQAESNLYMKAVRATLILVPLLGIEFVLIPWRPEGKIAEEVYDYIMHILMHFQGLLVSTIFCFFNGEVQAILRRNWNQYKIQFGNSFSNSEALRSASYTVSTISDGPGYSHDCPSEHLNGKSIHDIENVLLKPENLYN
Chain of adrenomedullin receptor (O60895 43-175): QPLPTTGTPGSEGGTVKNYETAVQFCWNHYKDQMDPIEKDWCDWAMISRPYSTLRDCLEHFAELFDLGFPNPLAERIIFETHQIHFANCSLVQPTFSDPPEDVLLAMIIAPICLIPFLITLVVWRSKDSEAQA

CGRP receptors = molecular target: T2, CGRP receptors (Homo sapiens, UniProt O60894+Q16602); experiment: CGRP radioligand binding assay (125I-hCGRP, SK-N-MC cell membranes)
T2 construct: membranes prepared from SK-N-MC cells, known to express CGRP receptors; endogenous in cells; host or cells: SK-N-MC cell membranes
T2 sequence (Q16602 23-461): as the sequence (Q16602 23-461) above
T2 sequence (O60894 27-148): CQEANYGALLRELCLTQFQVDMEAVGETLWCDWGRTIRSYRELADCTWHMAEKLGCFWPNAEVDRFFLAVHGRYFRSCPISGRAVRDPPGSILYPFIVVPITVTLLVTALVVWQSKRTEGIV

amylin receptors = molecular target: T3, amylin receptors (Rattus norvegicus, UniProt P32214); experiment: amylin radioligand binding assay (125I-rat amylin, nucleus accumbens membranes); conditions: Table 6; read-out: Amylin receptor binding
T3 construct: This basal forebrain tissue, containing the nucleus accumbens and surrounding regions, was weighed and homogenized; from tissue; host or cells: rat basal forebrain (nucleus accumbens) membranes, male Sprague-Dawley rats
T3 sequence (P32214 25-516): T1 sequence (P32214 25-516)
Protocol: Unlabeled peptides were obtained from BACHEM Inc. (Torrance, Calif.).
Male Sprague-Dawley® rats (200-250) grams were sacrificed by decapitation. Brains were removed and place in cold phosphate-buffered saline (PBS). From the ventral surface, cuts were made rostral to the hypothalamus, bounded laterally by the olfactory tracts and extending at a 45° angle medially from these tracts. […] Membranes were washed three times in fresh buffer by centrifugation for 15 minutes at 48,000×g. The final membrane pellet was resuspended in 20 mM HEPES buffer containing 0.2 mM phenylmethylsulfonyl fluoride (PMSF).
Solutions were incubated for 60 minutes at 2 C. […] Filters were washed immediately before filtration with 5 ml cold PBS, and immediately after filtration with 15 ml cold PBS. […] Competition curves were generated by measuring binding in the presence of 10^−12 to 10^−6 M unlabeled test compound and were analyzed by nonlinear regression using a 4-parameter logistic equation (INPLOT program; […] Software, San Diego, Calif.).

Sprague-Dawley rats = experiment: 1-week continuous subcutaneous infusion in high fat-fed rats: food intake and body weight; format: in vivo, rat; conditions: 75 nmol/kg/day
Source text: Individually housed male Sprague-Dawley® rats (beginning weight=310 g; 12-h light/dark cycle) were maintained on a high fat (HF) diet (Research Diet 58% kcal from fat). Rats were fattened for 34 days. At the end of the fattening period, 7-day osmotic pumps (Durect Corp.) were implanted interscapularly under anesthesia (body weight at time of implant=403 g). The rats received pumps delivering compound or vehicle (50% DMSO). The following compounds were examined at a 75 nmol/kg/day dose: AFP-6, and an AFP-6 analog SEQ ID NO:32. Food intake and body weight measurements were obtained on day 2 and day 7. Group differences were analyzed using analysis of variance (ANOVA) and Fisher's Least-Significant Difference test.

NIH/Swiss mice = experiment: acute food intake assay in overnight-fasted mice, IP injection; format: in vivo, mouse; conditions: food intake
Protocol: The effect of AFP-6 on food intake was investigated using an acute food intake assay. This assay measured food consumption in lean, group-housed, overnight-fasted NIH/Swiss mice. 12 mice were housed 3 to a cage. The sample compound, in this case AFP-6, was injected IP in mice and food intake was measured during the next 2-hours. Decreased, as well as increased, food intake can be measured. Testing various doses of the compound generated ED50's. The assay was performed as follows: 1. Remove food (water ad libitum) at 5:00 pm the evening before the study. 2. Weigh food pellets (3 pellets/cage). 3. Inject animals intraperitoneally with 200 ul of appropriate solution, t=0. 4. Immediately add pre-weighed food to each cage (away from water bottle spout) and allow animals to feed undisturbed. 5. At 30, 60, and 120 minutes, collect and weigh food. 6. Analyze data. Data points represent mean ±sd of n=12.
Twelve mice were injected IP at t=0 for each dose, 0.3, 1, 3, 10, 30, 100, or 300 nmol/kg of AFP-6 (Amylin Pharmaceuticals, Inc.) (n=12/group). Food was introduced immediately after injection and amount consumed measured at t=30, 60, and 120 min.

| Molecule | IC50 (calcitonin receptor) [nM] | IC50 (adrenomedullin receptor) [nM] | IC50 (CGRP receptors; Table 6) [nM] | IC50 (amylin receptors) [nM] | body weight gain compared to Vehicle (Sprague-Dawley rats; Day 7) | percent body weight loss (vehicle-corrected) (Sprague-Dawley rats; Day 7) [%] | food intake compared to Vehicle (Sprague-Dawley rats; after 2 days of treatment) | FI 30 min ED50 (NIH/Swiss mice; 30 min) [nmol/kg] | FI 60 min ED50 (NIH/Swiss mice; 60 min) [nmol/kg] | IC50 (CGRP receptors; read-out: IC50 CGRP RBA, Table 3) [nM] |
| --- | --- | --- | --- | --- | --- | --- | --- | --- | --- | --- |
| CC(C)C[C@H](NC(=O)[C@H](CCC(N)=O)NC(=O)[C@H](Cc1c[nH]c2ccccc12)NC(=O)[C@H](CC(C)C)NC(=O)[C@H](CCCNC(=N)N)NC(=O)[C@H](Cc1c[nH]cn1)NC(=O)[C@H](CO)NC(=O)[C@H](CC(C)C)NC(=O)[C@H](CC(N)=O)NC(=O)[C@H](CCC(N)=O)NC(=O)[C@@H](NC(=O)[C@H](CCC(N)=O)NC(=O)[C@@H]1CSSC[C@H](NC(=O)CN)C(=O)N[C@@H](CC(N)=O)C(=O)N[C@@H]([C@@H](C)O)C(=O)N[C@@H](C)C(=O)N[C@@H]([C@@H](C)O)C(=O)N1)C(C)C)C(=O)N[C@@H](CCCNC(=N)N)C(=O)N[C@@H](CCC(N)=O)C(=O)N[C@@H](CC(=O)O)C(=O)N[C@@H](CO)C(=O)N[C@@H](C)C(=O)N1CCC[C@H]1C(=O)N[C@H](C(=O)N[C@@H](CC(=O)O)C(=O)N1CCC[C@H]1C(=O)N[C@@H](CO)C(=O)N[C@@H](CO)C(=O)N1CCC[C@H]1C(=O)N[C@@H](Cc1c[nH]cn1)C(=O)N[C@@H](CO)C(=O)N[C@@H](Cc1ccc(O)cc1)C(N)=O)C(C)C [compound 31] (H-GCNTATCQVQNLSHRLWQLRQDSAPVDPSSPHSY-NH2; disulfide 2-7 (inferred); N-terminus assumed) | 51 | ≥ 1000 | 18 | 12 | – | – | – | – | – | – |
| CC(C)C[C@H](NC(=O)[C@H](CCC(N)=O)NC(=O)[C@H](Cc1c[nH]c2ccccc12)NC(=O)[C@H](CC(C)C)NC(=O)[C@H](CCCNC(=N)N)NC(=O)[C@H](Cc1c[nH]cn1)NC(=O)[C@H](CO)NC(=O)[C@H](CC(C)C)NC(=O)[C@H](CC(N)=O)NC(=O)[C@H](CCC(N)=O)NC(=O)[C@@H](NC(=O)[C@H](CCC(N)=O)NC(=O)[C@@H]1CSSC[C@H](NC(=O)CN)C(=O)N[C@@H](C(C)C)C(=O)N[C@@H](CC(C)C)C(=O)NCC(=O)N[C@@H]([C@@H](C)O)C(=O)N1)C(C)C)C(=O)N[C@@H](CCCNC(=N)N)C(=O)N[C@@H](CCC(N)=O)C(=O)N[C@@H](CCC(=O)O)C(=O)N[C@@H](CO)C(=O)N[C@@H](C)C(=O)N1CCC[C@H]1C(=O)N[C@H](C(=O)N[C@@H](CCC(=O)O)C(=O)N1CCC[C@H]1C(=O)N[C@@H](CO)C(=O)N[C@@H](CO)C(=O)N1CCC[C@H]1C(=O)N[C@@H](Cc1c[nH]cn1)C(=O)N[C@@H](CO)C(=O)N[C@@H](Cc1ccc(O)cc1)C(N)=O)C(C)C [compound 40] (H-GCVLGTCQVQNLSHRLWQLRQESAPVEPSSPHSY-NH2; disulfide 2-7) | > 1000 | ≥ 1000 | > 1000 | > 1000 | – | – | – | – | – | – |
| H-RVGCGNLSTCQVQNLSHRLWQLMGPAGRQDSAPVDPSSPHSY-NH2 (disulfide 4-10 (inferred)) [compound 22] | 7.3 | 19 | 35 | 2.4 | – | – | – | – | – | – |
| H-VGMVLGTMQVQNLSHRLWQLRQDSAPVDPSSPHSY-NH2 [compound 27] | > 1000 | ≥ 1000 | > 1000 | > 1000 | – | – | – | – | – | – |
| TQAQLLRVGCVLGTCQVQNLSHRLWQLMGPAGRQESAPVEPSSPHSY-NH2 (cysteine pairing not given here) [SEQ ID NO: 32] | – | – | – | – | significantly less body weight gain than Vehicle | 2.1 | significantly reduced food intake | – | – | – |
| VQNLSHRLWQLMGPAGRQDSAPVDPSSPHSY-NH2 [compound 14] | > 1000 | 59 | > 1000 | > 1000 | – | – | – | – | – | – |
| r/h Amylin: Amylin Family polypeptide of Table 3; r/h not resolved per value (KCNTATCATQRLANFLVHSSNNFGAILSSTNVGSNTY; Islet amyloid polypeptide; UniProt P10997 34-70, looked up) | – | – | – | – | – | – | – | 11 to 25 | 25 to 33 | 12 |
